We go through three compounds from patent US20240327356A1, “PYRIMIDINE BASED RAS MODULATORS AND USES THEREOF” (QUANTA THERAPEUTICS, INC., priority 2021, published 2024).

Assay [1] has as its target KRAS^G12D-FMe.RAF1^RBDCRD complex (Homo sapiens, UniProt P01116, G12D). As to the kind of experiment: SHG assay: binding to bilayer-tethered KRAS G12D/RAF1 complex. The following applies: GppNHp-loaded complex on PS bilayer; compound 0.027-40 μM, monitored over 60 min. In outline:
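GppNHp-loaded KRAS G12D-FMe and RAF1 RBDCRD (equimolar) were tethered overnight at 4° C on a PS bilayer. Compounds at 0.027-40 μM in pH 7.4 Hepes buffer with 5 μM GppNHp were added. Second harmonic signal (800 nm excitation, 400 nm emission) was tracked every 5 min for 60 min.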

The subject of assay [2] is pERK (ERK phospho-T202/Y204) in SW-480 cells. As to the kind of experiment: pERK inhibition in SW-480 cell line (HTRF). Format: cell-based. The settings on record: Homo sapiens, SW480, 1 hour incubation with compound. Here is the method:
SW-480 cells were cultured in Leibovitz's L15 (Gibco Cat. No. 11415064), supplemented with 10% fetal bovine serum (Gibco, Cat. No. 1993708), and 1% penicillin and streptomycin. Cells were grown at 37° C., under atmospheric conditions without additional CO2. Cells were seeded into a 96-well tissue-culture treated plate (Greiner, Cat. No. 655180) at a density of 30,000 cell per well, and allowed to adhere for 16 hours before the media was removed, and cells were treated with compounds diluted into culture media at the indicated concentrations. After 1 hour of incubation in the presence of compound, cells were harvested to measure pERK levels using the lysis buffer supplied with the Homogenous Time Resolved Fluorescence pERK kit (HTRF, Cisbio Advance ERK phospho-T202/Y204, Cat. No. 64AERPEG). Lysates were transferred to a 384-well low-volume white plate (PerkinElmer, Cat. No. 6008280) and then treated with the detection reagents supplied by the HTRF kit, according to the “2-plate” protocol supplied by the manufacturer, and incubated for 4-hours at ambient temperature in darkness. Assay plates were read at two fluorescent wavelengths (665 nm and 620 nm) using an Envision plate reader (Perkin Elmer) and data was processed and fitted to a 4-parameter logistic model using Graphpad Prism 8.0 to calculate IC50 values.

For assay [3], the system named is Phospho-ERK (Thr202/Tyr204) in MiaPaCa-2 cells. As to the kind of experiment: pERK inhibition in MiaPaca-2 cell line (HTRF). It counts as cell-based. The settings on record: Homo sapiens, MIA PaCa-2, 1 hour incubation with compound. In outline: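 Following 16 h attachment, MiaPaCa-2 cells were given compounds for 1 h (final 0.5% DMSO), then lysed. Phospho-ERK (Thr202/Tyr204) detected by HTRF (665/620 nm) after 4 h detection at ambient temperature; IC50 from 4-parameter logistic fit.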
For orientation: Time-resolved FRET reads energy transfer from a long-lived donor to a nearby acceptor.

In the case of `N#CC1(C(=O)NCc2cnc(-c3ccc4c(c3)CCC4)nc2N2CCC(CN)C2)CC1` (stereo not drawn) [Compound 104], in assay [1], the EC50 lay in the range of 10 to 50 µM. The IC50 was 1 to 10 µM in assay [2] and 0.1 to 1 µM in assay [3].
The matching figures for `Cc1ccc(-c2ncc(CNC(=O)C3(CO)CC3)c(N3CCC(CN)C3)n2)cc1Cl` (stereo not drawn) [Compound 105]: 10 to 50 µM, 1 to 10 µM and 0.1 to 1 µM.
In the case of `Cc1ccc(-c2ncc(NS(=O)(=O)c3ccccc3)c(N3CCC(CN)C3)n2)cc1Cl` (stereo not drawn) [Compound 112], in assay [1], the EC50 fell in the range of 1 to 10 µM. For the same compound, the IC50 in assay [2] and in assay [3] was 1 to 10 µM throughout.

The EC50 is the concentration giving half of the maximal effect. Lower therefore signals higher potency in that assay. As usually defined, the IC50 is the concentration needed to halve the response being measured.
